Several values for one entry are separate records, joined by “and”; a condition that tells them apart may be missing. Identical values can stand only once.
Experiments:
PBC patients = system: PBC patients; set-up: method as in PMID 25500425; settings: cited from earlier work
[1] = system: animal models of non-obstructive cholestasis; set-up: method as in PMID 26177448; settings: cited from earlier work
FXR [2] = molecular target: T1, FXR (Homo sapiens, UniProt Q96RI1); set-up: method as in PMID 25247751; settings: any concentration tested; cited from earlier work
T1 sequence (Q96RI1 1-486): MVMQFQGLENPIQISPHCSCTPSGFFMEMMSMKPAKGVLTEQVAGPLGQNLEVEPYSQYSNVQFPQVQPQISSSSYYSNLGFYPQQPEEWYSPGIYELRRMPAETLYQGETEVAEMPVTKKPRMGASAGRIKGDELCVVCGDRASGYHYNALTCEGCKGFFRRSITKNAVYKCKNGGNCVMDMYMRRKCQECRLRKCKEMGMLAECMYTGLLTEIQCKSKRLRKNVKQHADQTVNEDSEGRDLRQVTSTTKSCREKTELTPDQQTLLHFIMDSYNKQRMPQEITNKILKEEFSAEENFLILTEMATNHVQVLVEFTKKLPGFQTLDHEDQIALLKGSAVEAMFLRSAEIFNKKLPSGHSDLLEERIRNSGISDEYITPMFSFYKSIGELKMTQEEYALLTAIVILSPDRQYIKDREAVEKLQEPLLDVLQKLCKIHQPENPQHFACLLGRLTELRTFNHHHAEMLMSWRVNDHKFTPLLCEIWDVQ
T1 sequence (P19793 1-462 partner): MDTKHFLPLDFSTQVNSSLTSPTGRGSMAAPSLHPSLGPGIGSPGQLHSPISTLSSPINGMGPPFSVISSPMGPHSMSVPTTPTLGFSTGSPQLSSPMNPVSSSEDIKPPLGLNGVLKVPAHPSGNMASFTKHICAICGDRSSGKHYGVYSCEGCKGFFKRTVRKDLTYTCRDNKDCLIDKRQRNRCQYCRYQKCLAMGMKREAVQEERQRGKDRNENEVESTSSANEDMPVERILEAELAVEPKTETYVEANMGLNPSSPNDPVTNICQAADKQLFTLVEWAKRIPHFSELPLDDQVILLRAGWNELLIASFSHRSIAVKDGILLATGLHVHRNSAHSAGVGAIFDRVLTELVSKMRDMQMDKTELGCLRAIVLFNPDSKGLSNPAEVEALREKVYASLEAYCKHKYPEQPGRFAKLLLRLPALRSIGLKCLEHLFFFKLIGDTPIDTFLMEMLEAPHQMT

[3] = system: rodent models of portal hypertension; set-up: method as in PMID 26539823; settings: cited from earlier work
GPBAR1 = system: GPBAR1; set-up: method as in PMID 25247751; settings: cited from earlier work
[4] = system: GPBAR1 target gene Pro-glucagon in GLUTAg cells; assay: Real-time PCR of GPBAR1 target gene Pro-glucagon in GLUTAg cells; type: cell-based, mouse; settings: 10 μM, relative to not treated cells
Experimental: (§1) Figure 10 (A) Coactivator recruitment assay measuring a direct interaction of FXR with SRC-1; ligands at 2 μM. Results are expressed as percentage of the effect of 3 arbitrarily settled as 100%. NT is referred to the experiment in absence of ligand. […] (B,C) Real-time PCR analysis of mRNA expression on FXR target genes BSEP (B), and OSTα (C) in HepG2 cells primed with 10 μM of compound 19. CDCA (1) was used as a positive control at 10 μM. (D) Real-time PCR analysis of mRNA expression of GPBAR1 target gene Pro-glucagon in GLUTAg cells stimulated with 10 μM of compounds 7 and 19, and TLCA (2) used as a positive control at 10 μM. Values are normalized to GAPDH and are expressed relative to those of not treated cells (NT) which are arbitrarily settled to 1. The relative mRNA expression is expressed as 2(−ΔΔCt).
(§2) Total RNA was isolated from HepG2 or GLUTAg cells using the TRIzol reagent according to the manufacturer’s specifications (Invitrogen). One microgram of purified RNA was treated with DNase-I and reverse transcribed with Superscript II (Invitrogen). For Real Time PCR, 10 ng template was dissolved in 25 μL containing 200 nmol/L of each primer and 12.5 μL of 2 × SYBR FAST Universal ready mix (Invitrogen). […] The relative mRNA expression was calculated and expressed as 2-(ΔΔCt). […]

human GPBAR1 = molecular target: T2, human GPBAR1 (Homo sapiens, UniProt Q8TDU6); assay: GPBAR1 transactivation (cAMP responsive element luciferase reporter) in transfected HEK-293T cells; type: cell-based; settings: for EC50: HEK-293T cells transfected with GPBAR1, concentration-response, mean ± standard error
T2 construct: expressed in transfected cells; host or cells: HEK-293T
T2 sequence (Q8TDU6 1-330): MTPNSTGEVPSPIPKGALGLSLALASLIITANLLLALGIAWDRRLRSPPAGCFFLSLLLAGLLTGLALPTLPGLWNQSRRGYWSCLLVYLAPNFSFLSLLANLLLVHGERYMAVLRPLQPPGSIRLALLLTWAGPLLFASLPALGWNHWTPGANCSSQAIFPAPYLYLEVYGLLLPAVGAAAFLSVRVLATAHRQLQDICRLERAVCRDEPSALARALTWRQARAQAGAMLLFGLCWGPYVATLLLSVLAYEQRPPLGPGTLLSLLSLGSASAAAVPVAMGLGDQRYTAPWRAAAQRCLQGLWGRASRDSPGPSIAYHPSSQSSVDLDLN
Excerpt: Luciferase activities were normalized with Renilla activities.

[5] = molecular target: T3, GST-fusion FXR-LBD / SRC-1 peptide (Homo sapiens, UniProt Q96RI1); assay: Alpha screen coactivator recruitment assay, direct interaction of FXR with SRC-1; type: biochemical; settings: ligands at 2 μM, effect of 6-ECDCA (3) settled as 100%
T3 construct: 10 nM of purified GST-tagged FXR-LBD protein
T3 sequence (Q96RI1 262-486 limits assumed): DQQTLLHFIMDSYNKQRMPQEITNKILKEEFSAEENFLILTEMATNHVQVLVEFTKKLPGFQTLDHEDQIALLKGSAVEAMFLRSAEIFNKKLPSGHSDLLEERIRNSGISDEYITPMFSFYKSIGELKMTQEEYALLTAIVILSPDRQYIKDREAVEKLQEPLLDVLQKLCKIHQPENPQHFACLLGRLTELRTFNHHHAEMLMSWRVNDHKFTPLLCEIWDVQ
T3 sequence (Q15788 676-700 partner limits assumed): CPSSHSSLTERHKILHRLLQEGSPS
Experimental: CDCA (1) and 6-ECDCA (3) were used as positive controls at 2 μM concentration and the effect of 6-ECDCA (3) was settled as 100%. […] Results are expressed as percentage of the effect of 3 arbitrarily settled as 100%. NT is referred to the experiment in absence of ligand. […] (B,C) Real-time PCR analysis of mRNA expression on FXR target genes BSEP (B), and OSTα (C) in HepG2 cells primed with 10 μM of compound 19. CDCA (1) was used as a positive control at 10 μM. (D) Real-time PCR analysis of mRNA expression of GPBAR1 target gene Pro-glucagon in GLUTAg cells stimulated with 10 μM of compounds 7 and 19, and TLCA (2) used as a positive control at 10 μM. Values are normalized to GAPDH and are expressed relative to those of not treated cells (NT) which are arbitrarily settled to 1. The relative mRNA expression is expressed as 2(-ΔΔCt). Anti-GST-coated acceptor beads were used to capture the GST-fusion FXR-LBD whereas the biotinylated-SRC-1 peptide was captured by the streptavidin donor beads. Upon illumination at 680 nm, chemical energy is transferred from donor to acceptor beads across the complex streptavidin-Donor/Src-1-Biotin/[…]-LBD/Anti-GST-Acceptor and a signal is produced. The assay was performed in white, low-volume, 384-well Optiplates (PerkinElmer) using a final volume of 25 μL containing final concentrations of 10 nM of purified GST-tagged FXR-LBD protein, 30 nM biotinylated Src-1 peptide, 20 μg/mL anti-GST acceptor beads acceptor beads and 10 μg/mL of streptavidin donor bead (PerkinElmer). The assay buffer contained 50 mM Tris (pH 7.4), 50 mM KCl, 0.1% BSA, and 1 mM DTT. The stimulation times with 1 μL of tested compound (dissolved in 50% DMSO/H2O) were fixed to 30 min at room temperature. The concentration of DMSO in each well was maintained at a final concentration of […]. After the addition of the detection mix (acceptor and donor beads) the plates were incubated in the dark for 4 h at room temperature and then were read in Envision microplate analyzer (PerkinElmer).

FXR [6] = molecular target: T1, FXR; assay: FXR transactivation luciferase reporter assay in transfected HepG2 cells; settings: HepG2 cells transfected with FXR; for EC50: EC50 FXR transactivation, 100 nM to 25 μM, mean ± standard error
Experimental: (A) HepG2 cells were transfected with pSG5-FXR, pSG5-RXR, pCMV-βgal, and p(hsp27)TKLUC vectors. […] CDCA (1, 10 μM) and 6-ECDCA (3, 1 μM) were used as a positive control. […] Cells were stimulated with 7–19 (10 μM). […] In both panels, results are expressed as mean ± standard error. *p < 0.05 versus not treated cells (NT).
HepG2 cells were transfected with FXR as described above and used in a luciferase reporter assay. […] Results are expressed as mean ± standard error.
For FXR and GP BAR1 mediated transactivations, HepG2 cells and HEK293T cells were transfected as described previously[25]. […] After treatments, 20 μL of cellular lysates were read using Dual Luciferase Reporter Assay System (Promega Italia s.r.l., Milan, Italy) according manufacturer specifications using the Glomax 20/20 luminometer (Promega Italia s.r.l., Milan, Italy). […] At 18 h post stimulations, cellular lysates were assayed for luciferase and Renilla activities using the Dual-Luciferase Reporter assay system (E1980, Promega). Luminescence was measured using Glomax 20/20 luminometer (Promega). Luciferase activities were normalized with Renilla activities.

[7] = system: FXR target genes BSEP and OSTα in HepG2 cells; assay: Real-time PCR of FXR target genes BSEP and OSTα in HepG2 cells; type: cell-based, human; settings: 10 μM, relative to not treated cells
Experimental: as §1, §2

CC[C@H]1[C@@H](O)[C@@H]2[C@H](CC[C@]3(C)[C@@H]([C@H](C)CCC(=O)O)CC[C@@H]23)[C@@]2(C)CC[C@@H](O)C[C@@H]12 [6-ECDCA/OCA, 6-ECDCA]
Patients who experienced the symptoms (pruritus) (PBC patients): approx. 80%
PBC patients who halted the treatment due to the severity of itching (PBC patients; one trial): up to 40%

CC[C@H]1[C@@H](O)[C@@H]2[C@H](CC[C@]3(C)[C@@H]([C@H](C)CCO)CC[C@@H]23)[C@@]2(C)CC[C@@H](O)C[C@@H]12 [compound 5]
Liver damage and itching [1]: attenuates liver damage in animal models of non-obstructive cholestasis without inducing itching

CC[C@@H]1[C@H](O)[C@@H]2[C@H](CC[C@]3(C)[C@@H]([C@H](C)CCCO)CC[C@@H]23)[C@@]2(C)CC[C@@H](O)C[C@@H]12 [compound 6, EUDCOH]
FXR transactivation (FXR [2]): failing in transactivating FXR at any concentration tested
Portal pressure [3]: exerts portal pressure-lowering effects
EC50 (GPBAR1): 1030 nM

CCC1C(O)C2C3CCC(C(C)CCO)C3(C)CCC2C2(C)CCC(O)CC12 (stereo not drawn) [compound 7]
Pro-glucagon gene expression [4]: increased pro-glucagon gene expression
GPBAR1 potency compared with TLCA (2) (human GPBAR1; HEK-293T cells transfected with GPBAR1, 10 μM): potency similar to that of TLCA
GPBAR1 transactivation (cAMP-luciferase reporter gene) (human GPBAR1; HEK-293T cells transfected with GPBAR1, compounds at 10 μM): inducers of cAMP-luciferase reporter gene
EC50 (human GPBAR1): 910 nM
Recruitment of SRC-1 co-activator to FXR [5]: completely unable to recruit SRC-1

CC[C@@H]1[C@@H](O)C2C3CC[C@H]([C@H](C)CCO)[C@@]3(C)CCC2[C@@]2(C)CC[C@@H](O)C[C@@H]12 (stereo partly drawn) [compound 9]
Recruitment of SRC-1 co-activator to FXR [5]: completely unable to recruit SRC-1

C/C=C1/[C@H](O)C2C3CC[C@H]([C@H](C)CCO)[C@@]3(C)CCC2[C@@]2(C)CC[C@@H](O)C[C@@H]12 (stereo partly drawn) [compound 10]
Recruitment of SRC-1 co-activator to FXR [5]: completely unable to recruit SRC-1

CCC1C(O)C2C3CCC(C(C)CC(=O)O)C3(C)CCC2C2(C)CCCCC12 (stereo not drawn) [compound 13]
EC50 (FXR [6]): 2300 nM and 2320 nM
EC50 (human GPBAR1): 4300 nM

CCC1C(O)C2C3CCC(C(C)CCO)C3(C)CCC2C2(C)CCC(O)CC12 (stereo not drawn) [compound 14]
EC50 (FXR [6]): 5300 nM
EC50 (human GPBAR1): 1000 nM and 1020 nM

CCC1C(O)C2C3CCC(C(C)CCCCCOS(=O)(=O)O)C3(C)CCC2C2(C)CCC(O)CC12 (stereo not drawn) [compound 19]
Pro-glucagon gene expression [4]: increased pro-glucagon gene expression
EC50 (FXR [6]): 1700 nM
FXR transactivation (luciferase reporter) (FXR [6]; compounds at 10 μM): the most potent FXR agonist generated in this study
EC50 (human GPBAR1): 950 nM
BSEP mRNA upregulation [7]: 2 fold
OSTα mRNA expression [7]: robust induction of OSTα mRNA
Recruitment of SRC-1 co-activator to FXR [5]: at least comparable, if not better, to that measured for 3

Source: publication PMC4933954, “Navigation in bile acid chemical space: discovery of novel FXR and GPBAR1 ligands” (Scientific Reports, 2016)
